According to PubChem BioAssay (NCI):
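Results reflect a 48-hour exposure of cells in 96-well plates to compound at five concentrations. GI50 is the concentration that inhibits growth by half. The concentration for full growth arrest is given as TGI.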 *1 amine or outer side, *2 acyl side, *3 side chain or, on linkers, in order; H or OH if unused. Where a SMILES comes first, the peptide text is derived from it. Bridges are numbered along the chain shown (N, C = ends). [ ]: non-standard residue; d: D form. The star is where a group is joined. X19 = O=C([C@H](N[*:1])c1ccc(O[C@H]2O[C@@H](CO)[C@@H](O)[C@@H](O)[C@H]2O[C@@H]2O[C@H](CO)[C@H](O)[C@H](O)[C@@H]2O)cc1)[*:2]; X18 = NC(=O)[C@@H](O[*:3])[C@H](N[*:1])C(=O)[*:2]; X20 = O=C([C@H](N[*:1])c1ccc(O)c(Cl)c1)[*:2]; d(aThr) = C[C@@H](O)[C@@H](N)C(=O)O; dHpg = N[C@@H](C(=O)O)c1ccc(O)cc1; X17 = CC(C)C/C=C/C=C/C(=O)*; dOrn = NCCC[C@@H](N)C(=O)O

Tests used:
Assay in all cases: NCI tumour cell line growth inhibition, 48 h
[1] = tested on: A549 NSCLC
[2] = tested on: UO-31 renal
[3] = tested on: HL-60(TB) leukemia
[4] = tested on: 786-0 renal
[5] = tested on: OVCAR-3 ovarian
[6] = tested on: NCI-H522 lung
[7] = tested on: MCF7 breast
[8] = tested on: NCI-H460 lung
[9] = tested on: ACHN renal
[10] = tested on: MDA-MB-231 breast

Compound	GI50 [1] [µM]	TGI [1] [µM]	GI50 [2] [nM]	TGI [2] [µM]	GI50 [3] [µM]	TGI [3] [µM]	GI50 [4] [µM]	TGI [4] [µM]	GI50 [5] [µM]	TGI [5] [µM]	GI50 [6] [nM]	TGI [6] [µM]	GI50 [7] [nM]	TGI [7] [µM]	GI50 [8] [µM]	TGI [8] [µM]	GI50 [9] [µM]	TGI [9] [µM]	GI50 [10] [µM]	TGI [10] [µM]
O=C1/C(=C/c2ccccc2)CN(CCC(=O)N2C/C(=C\c3ccccc3)C(=O)/C(=C/c3ccccc3)C2)C/C1=C\c1ccccc1	29.3	> 100	7510	21.7	13.7	> 100	9.8	32.9	3.07	19.2	14600	62.7	182	26.3	35.9	> 100	8.92	30.3	10.7	56.2
CN(C)CCCN=c1cc2c(=O)n(CCCN(C)C)c(=O)c3c(NCCCN(C)C)cc4c(O)n(CCCN(C)C)c(=O)c1c4c3-2	0.525	2.63	2920	12.9	15.1	60.5	6.36	87.4	2.26	7.88	781	2.76	409	9.4	0.395	1.86	0.736	12.4	3.02	16.3
ClC1(c2ccccc2)c2ccc(Br)cc2-c2cc(Br)ccc21	–	34.3	–	29.6	–	> 100	–	30.2	–	30.6	–	30.6	–	36	–	27.4	–	29.6	–	30.7
N/C(=N\c1nc2ccccc2s1)NC(=O)Nc1ccccc1Cl	0.19	18.1	197	21.2	0.082	0.688	0.184	10.4	0.0857	0.594	43.9	11.9	112	> 100	0.149	10.4	0.227	7.17	0.431	8.21
CC(C)(C)N1CC(OC(N)=O)C1	> 100	> 100	> 100000	> 100	> 100	> 100	> 100	> 100	> 100	> 100	> 100000	> 100	> 100000	> 100	> 100	> 100	> 100	> 100	> 100	> 100
CNC(=O)c1cncc(/C=C/c2c(C)cccc2C)c1	> 25	> 25	9290	> 25	> 25	> 25	> 25	> 25	> 25	> 25	> 17800	> 25	> 25000	> 25	> 25	> 25	16.3	> 25	21.1	> 25
C#Cc1cccc(Nc2ncnc3ccc(-c4cnc(Cl)c(NS(C)(=O)=O)c4)cc23)c1	0.725	4.83	111	1.41	0.207	1.27	0.343	4.55	0.197	1.29	332	4.33	104	2.57	0.572	11.7	0.442	> 100	0.44	3.66
COc1ccccc1N1CCN(C(=O)c2ccc(NS(=O)(=O)c3cccc4cccnc34)cc2)CC1	> 100	> 100	> 100000	> 100	> 100	> 100	> 61.7	> 100	> 100	> 100	22200	> 88.5	> 49400	> 100	> 100	> 100	> 71	> 100	> 53.6	> 100
O=C(O[C@H]1CN[C@H](C#Cc2cc3ncnc(Nc4ccc(OCc5cccc(F)c5)c(Cl)c4)c3s2)C1)N1CCOCC1	6	> 25	4410	> 15.8	6.11	15.1	4.68	9.66	4.12	11.1	1410	8.12	8570	> 25	6.4	> 25	4.27	> 25	5.09	14.5
CC(C)C/C=C/C=C/C(=O)N[C@@H](CC(N)=O)C(=O)N[C@@H]1C(=O)N[C@H](c2ccc(O)cc2)C(=O)N[C@H](CCCN)C(=O)N[C@H]([C@@H](C)O)C(=O)N[C@H](c2ccc(O)cc2)C(=O)N[C@H](c2ccc(O)cc2)C(=O)N[C@H]([C@H](C)O)C(=O)N[C@H](Cc2ccccc2)C(=O)N[C@H](CCCN)C(=O)N[C@H](c2ccc(O[C@H]3O[C@@H](CO)[C@@H](O)[C@@H](O)[C@H]3O[C@@H]3O[C@H](CO)[C@H](O)[C@H](O)[C@@H]3O)cc2)C(=O)N[C@H]([C@H](C)O)C(=O)N[C@H](c2ccc(O)cc2)C(=O)NCC(=O)N[C@H](CC(C)C)C(=O)N[C@H](C)C(=O)N[C@H](c2ccc(O)c(Cl)c2)C(=O)O[C@@H]1C(N)=O (X17-N[X18][dHpg][dOrn][d(aThr)][dHpg][dHpg][dT][dF][dOrn][X19][dT][dHpg]G[dL][dA][X20]; ester 2-C)	> 100	> 100	> 100000	> 100	> 100	> 100	25	56.7	46.5	> 100	33900	> 100	31900	94.7	23.5	66.9	68.7	> 100	16.1	39.6
COc1cccc(-c2nc(-c3ccc(NC(=O)c4ccccc4)cc3)[nH]c2-c2ccnc(Br)c2)c1	4.07	> 100	2930	> 100	1.72	7.45	0.702	5.88	4.48	> 100	3170	> 100	2400	> 100	3.53	> 100	2.95	> 100	3.97	> 100
CN(C1=NS(=O)(=O)N=C(N(C)c2ccccc2)O1)c1ccccc1	–	54.4	–	37.6	–	33.7	–	72.7	–	51.6	–	46.2	–	38.9	–	47.7	–	31.7	–	41
CCC1CCCCN1C(=S)N/N=C(\C)c1ccccn1 (stereo not given)	0.0346	2.94	134	1.82	0.0429	3.91	0.853	2.39	< 0.0133	1.16	91.2	1.82	< 12.1	4.2	0.0479	3.17	< 0.0175	1.67	0.0922	3.69
CCn1cc(C(=O)N/N=C/c2cccc(F)c2)c(=O)c2cc(F)c(N3CCNC(C)C3)c(F)c21 (stereo not given)	1.74	3.29	1460	2.79	1.88	3.66	1.63	3.16	1.82	3.4	1760	3.32	1640	3.18	1.68	3.14	1.63	2.99	1.68	3.14
COc1cc(C)[nH]c(=O)c1CN1CCc2c(Cl)cc([C@H](OC)C3COC3)c(Cl)c2C1=O	> 100	> 100	> 100000	> 100	> 100	> 100	> 100	> 100	> 100	> 100	> 100000	> 100	> 100000	> 100	> 100	> 100	> 100	> 100	> 100	> 100
O=C1CC2C(=O)C1C(C(=O)O)C2C(=O)O (stereo not given)	–	> 100	–	> 100	–	> 100	–	> 100	–	> 100	–	> 100	–	> 100	–	> 100	–	> 100	–	> 100
C=C1SC(=Nc2ccccc2Cl)N(C(=O)c2sc3ccccc3c2Cl)C1(C)C	4.5	> 100	3640	> 100	9.3	> 100	25.4	> 81.9	7.55	> 56.3	3030	26.8	3760	> 51.7	4.14	> 57.1	3.24	> 46	8.68	59.5
O=C1c2cccc3cc([N+](=O)[O-])cc(c23)C(=O)N1CCN1CCCC1	0.242	1.69	281	3.17	0.404	> 100	0.28	1.2	1.74	5.71	495	2.88	309	3.83	0.161	0.902	0.193	0.706	1.56	11.1
CCCCNC(=O)Oc1ccc2c(=O)c3sc4c(=O)c5ccccc5c(=O)c4c3c(=O)c2c1	0.209	0.481	699	2.66	3.11	> 100	1.77	4.23	0.299	0.977	379	1.64	429	2.18	0.195	0.395	0.874	2.18	1.39	5.91
O=C(NC1CCN(Cc2ccccc2)CC1)c1cc(C(=O)NC2CCN(Cc3ccccc3)CC2)cc(C(=O)NC2CCN(Cc3ccccc3)CC2)c1	6.68	15.4	> 50000	> 50	15.1	> 50	14.8	> 50	10.7	44.6	2030	10.1	946	1.85	8.07	16.9	> 50	> 50	2.57	11.6
CN(C)c1ccc2cc(-c3cc4c(oc3=O)-c3ccccc3OC4O)c(=O)oc2c1 (stereo not given)	3.22	7.15	5090	12.7	5.7	> 25	8.33	> 25	5.9	> 25	3600	10.2	3230	11.2	4.14	14.3	4.29	12.5	4.9	11.5
Cc1cccc2c1O/C(=C\c1ncc([N+](=O)[O-])n1C)C2=O	0.382	2.26	190	0.708	0.216	1.13	0.28	0.969	0.254	0.864	188	0.523	243	3.27	0.132	0.581	0.0595	0.341	0.295	1.51
CC1OC(O[C@H]2/C=C/C=C/C=C/C=C/C=C/C=C/C=C/[C@H](C)[C@@H](O)[C@@H](C)[C@H](C)OC(=O)C[C@H](O)C[C@H](O)CC[C@@H](O)[C@H](O)C[C@H](O)C[C@]3(O)C[C@H](O)[C@@H](C(=O)O)[C@H](C2)O3)C(O)C(N)C1O (stereo not given in full)	9.72	34.9	–	4.27	3.29	30.6	–	29.2	–	27.2	–	20.9	–	56.1	19.1	40.4	6.47	20.5	32.9	48.2
